Assay results reported in ChEMBL document CHEMBL1157539, “Thousands of chemical starting points for antimalarial lead identification” (Nature, 2010).

The molecules below were run on Plasmodium falciparum (assay: GSK_TCMDC: Inhibition of Plasmodium falciparum 3D7 in whole erythrocytes, using parasite LDH activity as an index of growth.). Conditions: Plasmodium falciparum, 3D7.
Assay type: functional, organism-based
With `O=C1CCCN1CCCNCc1cccc(-c2cccc(-c3nc4cc(C(F)(F)F)ccc4[nH]3)c2)c1` the XC50 was 299 nM. `COc1cc(CN2CCC(CO)(Cc3cccc(C(F)(F)F)c3)CC2)c(Cl)cc1O` was tested, and the XC50 was 896 nM. Molecule `CCCCCc1cc(OC(C)=O)c2c(c1)OC(C)(C)C=C2C1=CCN(Cc2ccccc2)CC1` has an XC50 of 926 nM. With `COc1cc(C=Cc2ccc3ccccc3n2)cc(Br)c1OCC(=O)N(C)C` the XC50 was 1100 nM. `O=C(Nc1cccc(CN2CCN(C(=O)c3ccccc3)CC2)c1)c1ccco1` gave an XC50 of 886 nM. For `O=C(Nc1cccc(CN2CCCN(Cc3ccc(O)cc3)CC2)c1)c1ccc(Br)cc1`, the XC50 was 800 nM. `O=C(Nc1ccc(Cl)cc1)c1cccc(S(=O)(=O)NC2CCN(CC3CCCCC3)C2)c1` (centres undefined) gave an XC50 of 905 nM. Molecule `COc1ccccc1-c1[nH]c2ccccc2c1CN1CCC(c2c(C)cccc2C)CC1` has an XC50 of 918 nM. Molecule `COc1c(C2CCN(CCCCNC(=O)C=Cc3cc4cc(Cl)ccc4o3)CC2)ccc2c1CCCC2` has an XC50 of 1310 nM. Work on `CCC(=O)N1CCc2cc(Br)cc(S(=O)(=O)N3CC(C)CC(C)C3)c21` (centres undefined) yielded an XC50 of 932 nM. Work on `COc1ccc(OCCn2cc(C(=O)c3ccco3)c3ccccc32)cc1` yielded an XC50 of 773 nM. `CN1CCC(Oc2ccc(CN3CC[C@H](NC(=O)c4cc(F)cc(F)c4)C3)c3ccccc23)C1` (some centres undefined) gave an XC50 of 841 nM. For `O=C(/C=C/c1ccc(Cl)c(Cl)c1)NCCCCCN1CCCN(C(=O)Nc2ccc(OC(F)F)cc2)CC1`, the XC50 was 833 nM. For `O=C(NC1CC1)c1cnc(N2CCCC(c3ccccc3)C2)c(Cl)c1` (centres undefined), the XC50 was 797 nM. For `Cc1cc(N[C@@H](Cc2ccccc2)C(=O)Nc2ccccc2)nc(NCCc2ccc(F)cc2)n1`, the XC50 was 860 nM. For `O=C(Nc1cccc(F)c1)N(Cc1ccc(-c2ccc(CN3CCNCC3)cc2)cc1)C1CCN(Cc2ccccc2)CC1`, the XC50 was 769 nM. Molecule `CC(C)(C)C(=O)Nc1ccc(C(=O)Nc2cccc(-c3nc4ccccc4[nH]3)c2)cc1` has an XC50 of 282 nM. With `CCNC(=O)NC1CCN(Cc2c(-c3cccs3)nc3ccccc3c2C(=O)N[C@@H](C)C2CCCCC2)CC1` the XC50 was 91.3 nM. Work on `COc1ccc(CNC(=O)c2cc3c(=O)n4ccccc4nc3n(CCc3ccccc3)c2=N)cc1` yielded an XC50 of 330 nM. Molecule `CN1CCN(c2ccnc3ccc(NC(=O)Nc4ccccc4Br)cc23)CC1` has an XC50 of 372 nM. In the case of `CCOc1c(CNCCCNc2nc3ccccc3[nH]2)cc(Br)cc1OC`, the XC50 is reported as 557 nM. `Cc1cnc(C[S+]([O-])c2nc3cc(C(F)(F)F)ccc3[nH]2)cc1OCc1ccccc1` (centres undefined) was tested, and the XC50 was 742 nM. `COC(=O)c1cc(C(O)CNC(C)CCc2cccc(F)c2)ccc1O` (centres undefined) was tested, and the XC50 was 1180 nM. For `C=C[C@H]1CN2CC[C@H]1C[C@H]2[C@H](O)c1ccnc2ccccc12` [CINCHONIDINE], the XC50 was 172 nM. Work on `c1ccc(-c2cc3cccc(-c4nc5cnccc5[nH]4)c3o2)cc1` yielded an XC50 of 115 nM. In the case of `Cc1ccc2nc3c(cc(C(=O)NCCc4ccccc4)c(=N)n3CCCOC(C)C)c(=O)n2c1`, the XC50 is reported as 892 nM. `CCN(CC)CCN(Cc1ccc(-c2ccc(C(F)(F)F)cc2)cc1)C(=O)Cn1c(CCc2cccc(F)c2F)c(C)c(=O)c2ccccc21` showed an XC50 of 942 nM. `CCC(C)(C)c1ccc(S(=O)(=O)Nc2ccc(Cl)c(OCCN3CCCCC3)c2)cc1` showed an XC50 of 1110 nM. In the case of `O=C(Nc1ccc(-c2nc3ccccc3[nH]2)cc1)c1ccc(-c2cccc([N+](=O)[O-])c2)o1`, the XC50 is reported as 267 nM. In the case of `O=C(NC1CCN(Cc2ccccc2)CC1)c1ccc(-c2nc3cc4ccccc4cc3[nH]2)s1`, the XC50 is reported as 601 nM. In the case of `CN(C)CCCN(C)c1cccc2c1nc(-c1cccnc1)n2CCNCc1ccccc1`, the XC50 is reported as 1390 nM. Molecule `Cn1cncc1C(=O)Nc1cccc(-c2ccc(-c3nc4cc(C(F)(F)F)ccc4[nH]3)cc2)c1` has an XC50 of 509 nM. Molecule `CCCCN1CCN(CC(O)CNC(=O)Nc2ccc(Cl)cc2)CC1` (centres undefined) has an XC50 of 68.5 nM. Work on `CCN(CC)CCOc1ccc(C(O)(C#CC(O)(c2ccc(OCCN(CC)CC)cc2)c2ccc([N+](=O)[O-])cc2)c2ccc([N+](=O)[O-])cc2)cc1` (centres undefined) yielded an XC50 of 1730 nM. `COc1cccc(C=NN=c2cc(C)[nH]c3ccccc23)c1` gave an XC50 of 937 nM. `Cc1[nH]c(C)c(-c2ccc(OCc3cccc(C(F)(F)F)c3)nc2)c(=O)c1Br` was tested, and the XC50 was 40.3 nM. Molecule `O=C(NCCCc1ccccc1)c1csc(C2CCCN(C(=O)c3ccc(O)c(-c4cccc5ccccc45)c3)C2)n1` (centres undefined) has an XC50 of 967 nM. With `CC(CN(C)C)C(=O)Nc1ccc(-c2ccc(-c3nc4cc(C(F)(F)F)ccc4[nH]3)cc2)cc1` (centres undefined) the XC50 was 747 nM. `CCCCCCCc1cc(=O)c2ccccc2[nH]1` gave an XC50 of 317 nM. `CCOc1c(CNCCCNc2cc(=O)c3ccccc3[nH]2)cc(I)cc1C(C)(C)C` was tested, and the XC50 was 703 nM. `Nc1nc(N)c2c(ccc3c2cnn3Cc2cccnc2)n1` gave an XC50 of 48.1 nM. Molecule `O=C(C=Cc1ccccc1)Nc1ccc(C#CC=Cc2ccc(NC(=O)C=Cc3ccccc3)cc2)cc1` has an XC50 of 847 nM. For `CC1(C)CC(NC(=O)NC2CCN(Cc3ccccc3)CC2)CC(C)(CNC(=O)NC2CCN(Cc3ccccc3)CC2)C1` (centres undefined), the XC50 was 946 nM. `CCCCCCCCN1CCN(CCCCCCNc2c3ccccc3nc3ccccc23)CC1` showed an XC50 of 162 nM. `NCC(NC(=O)c1ccc(-c2c[nH]c3ncccc23)s1)c1ccccc1` (centres undefined) gave an XC50 of 546 nM. `N=C(N)c1ccc(C(=O)Nc2cccc(C(=N)N)c2)cc1` gave an XC50 of 1040 nM. `COc1ccc(N2CCN(CCCCNC(=O)c3ccc(NC(=O)c4cc(C(F)(F)F)cc(C(F)(F)F)c4)cc3)CC2)cc1OC` was tested, and the XC50 was 221 nM. For `OC(c1ccccc1)C1CN(CCc2ccccc2)CCC1(O)c1ccccc1` (centres undefined), the XC50 was 1040 nM. Work on `O=C(Nc1ccc(OC2CCN(Cc3ccc(F)cc3)C2)c(Cl)c1)c1ccoc1` (centres undefined) yielded an XC50 of 938 nM. `CCC(CC)OC(=O)C(C)c1cccc(C(=O)c2ccccc2)c1` (centres undefined) gave an XC50 of 833 nM. Work on `O=C(Nc1cncc(NC(=O)c2ccc(Cl)c(Cl)c2)c1)c1ccc(Cl)c(Cl)c1` yielded an XC50 of 730 nM. `CCCc1cc(Cc2cnc(N)nc2N)ccc1OCCCCCC(=O)OCC` gave an XC50 of 495 nM. `Fc1cccc(Nc2nc(NCCc3ccc(Cl)cc3)nc(Nc3cccc(F)c3)n2)c1` was tested, and the XC50 was 1070 nM. `Cn1c(=O)c2cc(C(=O)NCCCN3CCCCCC3)sc2c2ccccc21` showed an XC50 of 689 nM. `Cn1nccc1C(=O)NCCNCc1cccc(-c2ccc(-c3nc4cc(C(F)(F)F)ccc4[nH]3)cc2)c1` showed an XC50 of 122 nM. For `O=C(NC1CCC(CN2CCC(c3c[nH]c4ccccc34)CC2)CC1)c1cc2cccc([N+](=O)[O-])c2[nH]1` (centres undefined), the XC50 was 341 nM. Molecule `COc1ccc2nccc([C@@H](O)CN3CCC(NCCOc4cc(C(F)(F)F)ccc4F)CC3)c2c1` has an XC50 of 108 nM. `Nc1ncc(-c2ccc(Br)cc2)c(N)n1` gave an XC50 of 920 nM. Work on `CN1CCC(NCc2ccc(-c3ccc(S(=O)(=O)NCc4ccccc4)c(F)c3)cc2)CC1` yielded an XC50 of 611 nM. For `Cc1cc(F)ccc1-c1nc(N(C)CCN(C)C(=O)N(C)c2ccccc2)nc2c1ccc(=O)n2-c1c(F)cccc1F`, the XC50 was 1240 nM. Work on `Cc1cc(N(C)C)nc(Nc2ccc(NC(=O)c3ccc(F)cc3)cc2)n1` yielded an XC50 of 709 nM. Work on `COc1ccc2c(=NN=Cc3ccc(OC)c4ccccc34)cc(C)[nH]c2c1` yielded an XC50 of 599 nM. `CC(=O)Nc1ncc(C(=O)Nc2cccc(-c3ccc(-c4nc5cccc(C)c5[nH]4)cc3)c2)s1` gave an XC50 of 643 nM. `CCc1cn2c3c(cc(C(=O)N[C@@H](Cc4ccccc4)[C@H](O)CNC(C)(C)CCCC(C)C)cc13)N(C)S(=O)(=O)C2` showed an XC50 of 240 nM. With `CC(C)(CNCc1ccc(C(F)(F)F)cc1)c1nc(-c2ccnc(N)n2)c(-c2ccc(Cl)c(O)c2)[nH]1` the XC50 was 152 nM. With `COC(=O)Nc1cc(C(F)(F)F)ccc1N1CCCC(NS(=O)(=O)c2ccc(C(C)(C)C)cc2)C1` (centres undefined) the XC50 was 380 nM. Molecule `CC(C)c1ccc(CN2CCC(CNC(=O)c3cc(-c4cccc(Cl)c4)cs3)C2)cc1` (centres undefined) has an XC50 of 752 nM. `Cc1ccccc1C1CCN(C2CCC(NC(=O)c3ccc(-c4cc(C(F)(F)F)nn4C)s3)CC2)CC1` (centres undefined) was tested, and the XC50 was 846 nM. `Cn1ccnc1Sc1ncccc1[N+](=O)[O-]` showed an XC50 of 968 nM.
